Assay [1] relates to human PRP (platelet rich plasma). Description: Pharmacological test 1: inhibition of ADP-induced platelet aggregation in human PRP. To be noted: Platelet, ADP 5 μM inducer; for IC50: Homo sapiens, platelet aggregation; for inhibition at 1 µM: inhibition rate at 10^-6 M. The format is cell-based. The procedure: Pharmacological test 1 Inhibition of platelet aggregation
The effect of the compound according to the present invention on inhibiting the platelet aggregation was examined with human PRP (platelet rich plasma).
Nine volumes of a blood sample was taken out of the vein of a normal human with a syringe in which one volume of a 3.8% sodium citrate solution was charged. The blood sample was centrifuged at 170×g at room temperature for 10 minutes. The supernatant thus obtained was isolated as PRP. The residual blood sample that PRP had been taken out was centrifuged at 2,700×g for 15 minutes. The supernatant was then taken as platelet poor plasma (PPP).
Platelet aggregation test was conducted with an aggligometer (PAM-8C; manufactured by MEBANICKS Co., Ltd.). Compounds to be tested were dissolved in a 50% DMSO saline, a 50% methanol saline or physiological saline. The compound and PRP were preincubated for 2 minutes. The ADP (CHRONO-PAR REAGENTS 384 ADP, CHRONO-LOG Corp.) was used as an inducer in the form of a dilution with saline so that the final concentration is 5 μM.
Anti-platelet aggregation activity was obtained as an inhibition rate to platelet aggregation effect of ADP in the absence of a compound to be tested as follows: [formula] Physiological test 2 Inhibition of fibrinogen bonding to platelet GPIIb/IIIa

In assay [2] the target is T1, human platelet GPIIb/IIIa (Homo sapiens, UniProt P05106+P08514).
T1 construct: platelets collected from healthy adults; from tissue; host or cells: platelets from healthy adults (solubilized with octylglucoside, purified on GRGDSPK-Sepharose)
T1 sequence (P08514 32-887 limits assumed): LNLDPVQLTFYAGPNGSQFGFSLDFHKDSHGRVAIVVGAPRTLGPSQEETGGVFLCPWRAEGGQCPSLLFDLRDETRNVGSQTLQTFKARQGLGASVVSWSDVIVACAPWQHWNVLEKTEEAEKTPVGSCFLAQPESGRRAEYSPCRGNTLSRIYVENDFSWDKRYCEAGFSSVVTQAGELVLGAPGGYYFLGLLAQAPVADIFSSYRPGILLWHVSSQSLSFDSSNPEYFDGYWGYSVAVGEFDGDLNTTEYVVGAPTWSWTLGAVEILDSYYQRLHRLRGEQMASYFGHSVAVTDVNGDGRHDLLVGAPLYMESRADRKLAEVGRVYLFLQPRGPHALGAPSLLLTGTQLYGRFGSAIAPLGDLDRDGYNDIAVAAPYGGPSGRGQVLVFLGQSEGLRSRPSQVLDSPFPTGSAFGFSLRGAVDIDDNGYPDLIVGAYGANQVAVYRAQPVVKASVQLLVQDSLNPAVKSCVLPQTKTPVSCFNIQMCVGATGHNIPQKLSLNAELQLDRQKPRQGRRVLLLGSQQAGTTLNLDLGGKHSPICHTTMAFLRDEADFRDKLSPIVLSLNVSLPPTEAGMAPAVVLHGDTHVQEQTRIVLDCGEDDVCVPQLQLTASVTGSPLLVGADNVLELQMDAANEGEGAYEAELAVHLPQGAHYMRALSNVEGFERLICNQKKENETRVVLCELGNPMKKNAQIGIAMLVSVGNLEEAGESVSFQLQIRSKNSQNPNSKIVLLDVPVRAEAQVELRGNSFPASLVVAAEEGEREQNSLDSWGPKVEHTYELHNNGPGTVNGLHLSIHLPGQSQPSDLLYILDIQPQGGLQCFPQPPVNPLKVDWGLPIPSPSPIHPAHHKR
T1 sequence (P08514 891-1039 limits assumed): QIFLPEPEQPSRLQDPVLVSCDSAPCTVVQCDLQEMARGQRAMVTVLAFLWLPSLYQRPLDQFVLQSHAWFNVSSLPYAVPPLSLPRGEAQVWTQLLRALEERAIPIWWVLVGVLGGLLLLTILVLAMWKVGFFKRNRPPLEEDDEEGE
T1 sequence (P05106 27-788): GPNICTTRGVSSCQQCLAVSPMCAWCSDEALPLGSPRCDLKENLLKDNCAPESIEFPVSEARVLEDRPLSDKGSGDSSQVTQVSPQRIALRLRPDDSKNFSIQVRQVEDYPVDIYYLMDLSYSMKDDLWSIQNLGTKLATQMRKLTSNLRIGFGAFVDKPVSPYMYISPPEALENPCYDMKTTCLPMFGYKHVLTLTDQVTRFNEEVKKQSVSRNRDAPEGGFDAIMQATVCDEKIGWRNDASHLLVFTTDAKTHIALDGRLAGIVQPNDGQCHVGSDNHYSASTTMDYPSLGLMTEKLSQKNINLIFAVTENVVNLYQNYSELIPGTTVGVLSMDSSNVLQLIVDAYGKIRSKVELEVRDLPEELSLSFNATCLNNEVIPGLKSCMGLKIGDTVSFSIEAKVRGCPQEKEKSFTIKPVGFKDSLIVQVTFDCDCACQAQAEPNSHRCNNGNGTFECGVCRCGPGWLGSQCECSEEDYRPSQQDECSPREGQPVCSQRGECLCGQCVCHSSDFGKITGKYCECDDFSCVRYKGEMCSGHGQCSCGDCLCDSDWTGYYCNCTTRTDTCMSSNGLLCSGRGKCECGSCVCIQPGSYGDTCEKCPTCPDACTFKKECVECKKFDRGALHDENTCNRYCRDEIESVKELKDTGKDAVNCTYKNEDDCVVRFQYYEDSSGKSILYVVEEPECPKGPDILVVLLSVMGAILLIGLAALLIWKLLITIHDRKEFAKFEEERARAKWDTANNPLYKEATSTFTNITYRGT
Description: Pharmacological test 2: inhibition of fibrinogen bonding to platelet GPIIb/IIIa (solid phase assay, biotinylated fibrinogen). The format is binding. To be noted: for IC50: fibrinogen bonding to GPIIb/IIIa; for inhibition at 10 µM: inhibition rate at 10^-5 M; for inhibition at 0.1 µM: inhibition rate at 10^-7 M. The procedure:
Inhibiting effect of the compound according to the present invention on the binding of platelet GPIIb/IIIa and fibrinogen was examined with a solid phase human platelet GPIIb/IIIa bonding assay using biotinylated fibrinogen as a ligand. Human platelet GPIIb/IIIa was purified according to the method described by Pytela, R. et al. (Science, 231, 1559-1561 (1986)). […] The same amount of TBS containing 50 mM octylglucoside and 2 mM PMSF was added to the pellet obtained in order to solubilize the membrane protein at 4° C. for 20 minutes. […] The solubilized protein solution was adsorbed on a GRGDSPK-Sepharose column which had been equilibrated with TBS (Buffer A) containing 50 mM Octylglucoside, 1 mM CaCl2 and MgCl2. After the column was washed with Buffer A, the adsorbed GPIIb/IIIa was eluted with Buffer A containing 2 mM GRGDSP peptide. GRGDSPK-Sepharose was prepared by coupling GRGDSPK peptide and CNBr-activated Sepharose 4B (Pharmacia) according to the instruction of the manufacturer. Then, solid phase human platelet GPIIb/IIIa bonding assay was carried out according to the method of Mori et al. […] Purified human platelet GPIIb/IIIa was adjusted in an amount of 2 μg/ml and adsorbed in an amount of 50 μl on a 96 well-microtiter plate at 4° C. overnight. After washing with TBS containing 1 mM CaCl2 and 1 mM MgCl2, 100 μl of 1% bovine serum albumin was added, blocking was conducted at 4° C. overnight. […] After washing with TBS-Tween 20, 50 μl of peroxidase labelled avidin which had been diluted with TBS to 4,000 times was added. The reaction was continued for 20 minutes. […] A 50 μl portion of a 0.1M citrate buffer containing 0.05% NaN3 was added to stop the reaction, and absorbance at 415 nm was measured. The rate of Bonding inhibition was calculated from the following formula: [formula]

Counter-ions that a name gives are not always drawn. Where only a bound is given, the exact number is not on record here.

Turning to `Cc1c(C(=O)NCC(=O)c2ccc(OCC(=O)O)c(OCC(=O)O)c2)sc2c1CNCC2` [Example 27, [[4-[[[(3-methyl-4,5,6,7-tetrahydrothieno[3.2-c]pyridin-2-yl)carbonyl]amino]acetyl]-o-phenylene]dioxy]diacetic acid trifluoroacetate], the IC50 in assay [1] was 2500 nM; in assay [2] it was 9.5 µM.

For `O=C(O)COc1ccc(C(=O)CNC(=O)c2cc3c(s2)CCNC3)cc1` [Example 22, 4-[[(4,5,6,7-tetrahydrothieno[3,2-c]pyridin-2-yl)carbonyl]aminoacetyl]phenoxyacetic acid trifluoroacetate], the half-maximal inhibitory concentration (IC50) in assay [1] was 1200 nM; in assay [2] it was over 10 µM.

Take `NCC1CCC(c2ncc(-c3ccc(OCC(=O)O)c(OCC(=O)O)c3)o2)CC1` (stereo not drawn) [Example 4, 2-(4-aminomethylcyclohexyl)-5-(3,4-dicarboxymethoxy)phenyloxazole]: at 1 µM the inhibition in assay [1] was 85%. The same molecule returned an inhibition at 10 µM in assay [2] of 73%.

Consider `O=C(O)COc1ccc(C(=O)CNC(=O)CCC2CCNCC2)cc1OCC(=O)O` [Example 10, [[4-[[N-[3-(piperidin-4-yl)propionyl]amino]acetyl]-o-phenylene]dioxy]diacetic acid trifluoroaceetate], for which, in assay [1], the IC50 was found to be 350 nM and the inhibition at 1 µM stood at 85%. Moreover, the inhibition at 0.1 µM in assay [2] worked out at 82%.

`CN(CC(=O)c1ccc(OCC(=O)O)c(OCC(=O)O)c1)C(=O)CCC1CCNCC1` [Example 9, [[4-[[N-[3-(piperidin-4-yl)propionyl]-N-methylamino]acetyl]-o-phenylene]dioxy]diacetic acid trifluoroacetate] yielded an inhibition at 1 µM in assay [1] of 79%. In assay [2], this molecule came in with an inhibition at 0.1 µM of 73%.

For `CN(CC(=O)c1ccc(OCC(=O)O)c(OCC(=O)O)c1)C(=O)c1cc2c(s1)CCNC2` [Example 19, [[4-[[[(4,5,6,7-tetrahydrothieno[3,2-c]pyridin-2-yl)carbonyl]-N-methylamino]acetyl]-o-phenylene]dioxy]diacetic acid trifluoroacetate], the IC50 in assay [1] was 550 nM; in assay [2], 3.6 µM.

In assay [1], `NC[C@H]1CC[C@H](C(=O)NCC(=O)c2ccc(OCC(=O)O)c(OCC(=O)O)c2)CC1` [Example 1, [[4-[[[trans-4-(aminomethyl)cyclohexyl]carbonylamino]acetyl]-o-phenylene]dioxy]diacetic acid trifluoroacetate] yielded an inhibition at 1 µM of 68%. This molecule also displayed an inhibition at 10 µM in assay [2] of 51%.

In turn, `NC[C@H]1CC[C@H](C(=O)NCCc2ccc(OCC(=O)O)c(OCC(=O)O)c2)CC1` [Example 7, [[4-[[2-[trans-4-(aminomethyl)cyclohexyl]carbonylamino]ethyl]-o-phenylene]dioxy]diacetic acid trifluoroacetate] had an inhibition at 1 µM in assay [1] of 48%. Further, the inhibition at 10 µM in assay [2] came out at 27%.

For `O=C(O)COc1ccc(C(=O)CNC(=O)c2cc3c(s2)CCNC3)cc1OCC(=O)O` [Example 18, [[4-[[[(4,5,6,7-tetrahydrothieno [3,2-c]pyridin-2-yl]carbonyl]amino]acetyl]-o-phenylene]dioxy]diacetic acid trifluoroacetate], the IC50 in assay [1] is 140 nM; in assay [2] it was 1.7 µM.

For `O=C(O)COc1ccc(C(O)CNC(=O)c2cc3c(s2)CCNC3)nc1` (stereo not drawn) [Example 21, 2-[1-hydroxy-2-[(4,5,6,7-tetrahydrothieno[3,2-c]pyridin-2-yl)carbonylamino]ethyl]pyridin-5-yloxyacetic acid trifluoroacetate], the IC50 was 500 nM in assay [1] and 10 µM in assay [2].

As a reminder, the IC50 is the point on the concentration scale where inhibition reaches its midpoint. Higher therefore signals weaker potency in that assay. For orientation: inhibition means the share of the control response that was lost under treatment.

The values above are taken from US5594004A, “Compound with platelet aggregation inhibitor activity” (Meiji Seika Kabushiki Kaisha, priority 1993, dated 1997).
